In ChEMBL document CHEMBL1201862, “PubChem BioAssay data set” (2004):
Active and inactive are the calls of the source.

What was measured:
[1] = biological target: Peroxisome proliferator-activated receptor gamma/Nuclear receptor coactivator 2 (Homo sapiens, UniProt P37231); assay type: functional;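 further: agonist potency for raising coactivator recruitment to the receptor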
[2] = biological target: Peroxisome proliferator-activated receptor gamma/Nuclear receptor coactivator 3 (Homo sapiens, UniProt P37231); assay type: functional;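 further: agonist potency for raising coactivator recruitment to the receptor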
[3] = biological target: Peroxisome proliferator-activated receptor gamma/Nuclear receptor coactivator 1 (Homo sapiens, UniProt P37231); assay type: functional;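 further: agonist potency as compounds enhance coactivator SRC-1 recruitment to PPARgamma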
[4] = biological target: Heat shock protein HSP 90-alpha (Homo sapiens, UniProt P07900); assay type: functional, organism-based
Prothrombin = Prothrombin (Homo sapiens, UniProt P00734); experiment: Thrombin 1536 HTS Dose Response Confirmation. [Related pubchem assays: 1046 (Thrombin 1536 HTS; hits were confirmed in this assay)]; assay type: functional
[5] = non-specific 3'UTR reporter inhibition in Clone20-Shn3RL – cell-based, Renilla luciferase, cherry-picked, counter-screen for Shn3 inhibitor project, dose response (AID 624133); assay type: functional
[6] = reduction of Shn3 3'UTR-driven luciferase in osteoblasts – cell-based, Clone20 osteoblasts, firefly luciferase, cherry-picked, dose response (AID 624132); assay type: functional;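 further: firefly luciferase luminescence from reporter carrying the Shn3 3'UTR in osteoblasts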
[7] = loss of viability in HepG2 cells – cell-based, CellTiter-Glo, cherry-picked, cytotoxicity control for Shn3 inhibitor project, dose response (AID 624134); assay type: functional
Genome polyprotein = Genome polyprotein (dengue virus type 2, UniProt P29990); experiment: flavivirus cap methylation enzyme inhibition – biochemical, confirmation dose response, primary screen (AID 588689); assay type: functional
[8] = system: Streptococcus sp. 'group A'; experiment: Streptococcus pyogenes SK(-)GAS viability under kanamycin – luminescence, BacTiterGlo, confirmation, counter-screen for streptokinase expression inhibitor project, dose response (AID 1900); assay type: functional, organism-based
INS1 = experiment: INS-1E survival protection against cytokine death – cell-based, luminescence, retest, dose response (AID 449756); assay type: functional; details: Rattus norvegicus;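 further: cell death triggered by IL-1 beta plus TNF-alpha plus IFN-gamma mixture; protective hits raise ATP signal compared with cytokine alone wells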
Streptokinase A = biological target: T1, Streptokinase A (Streptococcus pyogenes serotype M1, UniProt P10520); experiment: viability-normalized secreted streptokinase activity reduction – plasminogen activation absorbance, OD405, dose response (AID 1914); assay type: functional, Streptococcus pyogenes M1 GAS;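 further: secreted streptokinase activity via plasminogen activation per viability signal from cell pellet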
T1 sequence (P10520 whole entry): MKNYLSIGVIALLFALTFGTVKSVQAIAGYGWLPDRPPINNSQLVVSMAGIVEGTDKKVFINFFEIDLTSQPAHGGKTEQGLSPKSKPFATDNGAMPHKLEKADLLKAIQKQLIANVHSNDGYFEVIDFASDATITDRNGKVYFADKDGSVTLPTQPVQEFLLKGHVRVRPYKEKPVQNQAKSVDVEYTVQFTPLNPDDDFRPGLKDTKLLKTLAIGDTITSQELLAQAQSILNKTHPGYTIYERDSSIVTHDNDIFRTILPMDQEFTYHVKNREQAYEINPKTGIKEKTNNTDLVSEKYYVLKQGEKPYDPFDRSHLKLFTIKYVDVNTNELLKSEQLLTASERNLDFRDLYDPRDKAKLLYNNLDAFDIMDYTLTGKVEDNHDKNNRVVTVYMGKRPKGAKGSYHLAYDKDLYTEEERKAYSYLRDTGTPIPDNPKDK

Streptococcus = experiment: GAS UMAA2166 growth inhibition – luminescence, BacTiterGlo, counter-screen for streptokinase expression inhibitor project, dose response (AID 1915); assay type: functional, organism-based;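 further: potency for reduction of bacterial viability or growth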
[9] = Trypanosoma cruzi growth suppression in host cells – NIH3T3 host cells, beta-gal luminescence, confirmation (AID 2044); assay type: functional, cell-based;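 further: intracellular parasites grown in NIH/3T3 mouse fibroblasts as host cells; luminescent beta-galactosidase reporter signal from transgenic T. cruzi replicating inside host cells; inhibitors lower the luminescence signal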

Sequence of Peroxisome proliferator-activated receptor gamma/Nuclear receptor coactivator 3 (P37231 whole entry): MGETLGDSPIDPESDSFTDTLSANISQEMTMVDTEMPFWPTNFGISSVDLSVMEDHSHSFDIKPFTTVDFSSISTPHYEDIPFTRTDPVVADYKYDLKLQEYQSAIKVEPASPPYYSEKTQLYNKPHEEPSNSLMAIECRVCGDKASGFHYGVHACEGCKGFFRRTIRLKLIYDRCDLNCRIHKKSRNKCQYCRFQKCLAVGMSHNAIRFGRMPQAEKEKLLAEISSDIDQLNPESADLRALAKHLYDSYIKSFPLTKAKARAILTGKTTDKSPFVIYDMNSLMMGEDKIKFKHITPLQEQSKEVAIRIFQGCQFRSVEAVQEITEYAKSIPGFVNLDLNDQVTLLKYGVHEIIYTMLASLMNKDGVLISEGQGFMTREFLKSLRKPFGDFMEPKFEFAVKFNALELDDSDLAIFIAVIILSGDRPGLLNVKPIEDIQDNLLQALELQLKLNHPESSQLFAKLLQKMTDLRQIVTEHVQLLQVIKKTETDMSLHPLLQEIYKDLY
Sequence of Peroxisome proliferator-activated receptor gamma/Nuclear receptor coactivator 3 (Q9Y6Q9 whole entry, further chain): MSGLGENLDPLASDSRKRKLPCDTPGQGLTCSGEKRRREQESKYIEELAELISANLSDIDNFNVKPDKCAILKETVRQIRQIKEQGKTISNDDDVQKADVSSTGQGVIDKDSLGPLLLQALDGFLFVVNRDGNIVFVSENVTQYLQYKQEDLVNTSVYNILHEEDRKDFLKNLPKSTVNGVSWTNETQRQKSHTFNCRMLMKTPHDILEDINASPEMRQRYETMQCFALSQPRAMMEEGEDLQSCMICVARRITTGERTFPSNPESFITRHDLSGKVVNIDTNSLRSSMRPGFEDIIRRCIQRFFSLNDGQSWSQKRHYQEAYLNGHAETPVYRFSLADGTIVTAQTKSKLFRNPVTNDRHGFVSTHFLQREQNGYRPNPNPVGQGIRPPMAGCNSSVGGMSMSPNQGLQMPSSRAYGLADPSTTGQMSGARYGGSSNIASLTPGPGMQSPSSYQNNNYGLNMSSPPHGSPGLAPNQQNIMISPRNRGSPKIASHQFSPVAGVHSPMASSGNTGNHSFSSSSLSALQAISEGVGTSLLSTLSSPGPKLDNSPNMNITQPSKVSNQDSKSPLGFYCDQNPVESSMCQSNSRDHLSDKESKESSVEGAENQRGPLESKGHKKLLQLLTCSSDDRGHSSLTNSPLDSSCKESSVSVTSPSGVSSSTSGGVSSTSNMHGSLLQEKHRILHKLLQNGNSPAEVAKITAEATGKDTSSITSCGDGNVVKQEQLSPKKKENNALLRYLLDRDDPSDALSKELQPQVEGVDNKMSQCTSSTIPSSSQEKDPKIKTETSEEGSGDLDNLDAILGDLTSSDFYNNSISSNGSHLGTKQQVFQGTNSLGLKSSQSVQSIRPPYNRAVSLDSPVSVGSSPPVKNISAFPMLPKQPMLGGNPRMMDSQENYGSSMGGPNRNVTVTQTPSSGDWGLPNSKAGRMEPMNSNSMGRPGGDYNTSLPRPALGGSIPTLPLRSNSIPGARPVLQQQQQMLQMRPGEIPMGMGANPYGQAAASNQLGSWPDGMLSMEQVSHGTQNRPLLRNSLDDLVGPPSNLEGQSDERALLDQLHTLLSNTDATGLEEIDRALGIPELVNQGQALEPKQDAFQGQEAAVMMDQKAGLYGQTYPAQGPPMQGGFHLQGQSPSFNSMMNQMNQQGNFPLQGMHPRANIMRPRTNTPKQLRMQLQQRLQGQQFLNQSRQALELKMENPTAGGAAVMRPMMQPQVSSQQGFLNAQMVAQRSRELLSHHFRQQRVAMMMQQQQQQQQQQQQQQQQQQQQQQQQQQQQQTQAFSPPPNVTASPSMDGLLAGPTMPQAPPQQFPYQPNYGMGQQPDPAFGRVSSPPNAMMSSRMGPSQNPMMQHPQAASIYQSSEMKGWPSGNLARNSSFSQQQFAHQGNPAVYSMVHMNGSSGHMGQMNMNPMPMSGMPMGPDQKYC
Sequence of Peroxisome proliferator-activated receptor gamma/Nuclear receptor coactivator 2 (P37231 whole entry): as the sequence (P37231 whole entry) above
Sequence of Peroxisome proliferator-activated receptor gamma/Nuclear receptor coactivator 2 (Q15596 whole entry, further chain): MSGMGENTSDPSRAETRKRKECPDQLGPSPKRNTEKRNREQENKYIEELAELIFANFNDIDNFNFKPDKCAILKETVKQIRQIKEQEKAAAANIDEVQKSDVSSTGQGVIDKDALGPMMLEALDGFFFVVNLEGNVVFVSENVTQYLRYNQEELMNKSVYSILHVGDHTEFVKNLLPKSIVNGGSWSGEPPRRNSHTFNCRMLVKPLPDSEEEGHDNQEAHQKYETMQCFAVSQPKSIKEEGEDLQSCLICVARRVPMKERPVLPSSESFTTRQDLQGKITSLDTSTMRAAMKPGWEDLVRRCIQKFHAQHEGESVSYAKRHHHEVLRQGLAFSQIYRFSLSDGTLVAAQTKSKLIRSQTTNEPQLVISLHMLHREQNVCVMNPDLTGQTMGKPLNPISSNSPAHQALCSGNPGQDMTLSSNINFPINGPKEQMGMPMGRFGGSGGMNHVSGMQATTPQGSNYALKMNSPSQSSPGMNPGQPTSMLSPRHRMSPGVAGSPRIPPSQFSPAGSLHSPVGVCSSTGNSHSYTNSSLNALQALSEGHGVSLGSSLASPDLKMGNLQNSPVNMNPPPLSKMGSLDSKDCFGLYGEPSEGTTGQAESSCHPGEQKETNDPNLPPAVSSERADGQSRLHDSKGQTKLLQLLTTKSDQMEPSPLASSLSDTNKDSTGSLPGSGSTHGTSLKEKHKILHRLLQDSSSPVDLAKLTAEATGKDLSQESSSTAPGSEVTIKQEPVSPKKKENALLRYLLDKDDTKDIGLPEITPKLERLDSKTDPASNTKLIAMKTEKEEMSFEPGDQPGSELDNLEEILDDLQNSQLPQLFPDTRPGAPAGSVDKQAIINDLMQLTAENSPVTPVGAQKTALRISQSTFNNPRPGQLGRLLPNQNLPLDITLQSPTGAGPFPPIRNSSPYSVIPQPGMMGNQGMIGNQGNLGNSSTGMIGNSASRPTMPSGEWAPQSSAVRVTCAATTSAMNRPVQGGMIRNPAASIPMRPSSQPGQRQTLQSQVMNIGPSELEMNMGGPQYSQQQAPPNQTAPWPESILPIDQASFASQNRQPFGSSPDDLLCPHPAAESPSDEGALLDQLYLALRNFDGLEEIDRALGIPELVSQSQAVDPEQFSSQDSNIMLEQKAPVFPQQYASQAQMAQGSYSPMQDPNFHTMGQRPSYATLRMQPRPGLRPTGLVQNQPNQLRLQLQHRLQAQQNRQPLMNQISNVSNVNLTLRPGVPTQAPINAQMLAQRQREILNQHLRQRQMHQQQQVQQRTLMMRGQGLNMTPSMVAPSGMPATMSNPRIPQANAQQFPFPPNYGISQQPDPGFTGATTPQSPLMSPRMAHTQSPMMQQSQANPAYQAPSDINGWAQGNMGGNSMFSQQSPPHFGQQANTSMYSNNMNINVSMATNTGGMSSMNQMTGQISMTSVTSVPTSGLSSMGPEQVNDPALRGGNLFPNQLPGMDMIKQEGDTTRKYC
Sequence of Genome polyprotein (P29990 2492-3391 limits assumed): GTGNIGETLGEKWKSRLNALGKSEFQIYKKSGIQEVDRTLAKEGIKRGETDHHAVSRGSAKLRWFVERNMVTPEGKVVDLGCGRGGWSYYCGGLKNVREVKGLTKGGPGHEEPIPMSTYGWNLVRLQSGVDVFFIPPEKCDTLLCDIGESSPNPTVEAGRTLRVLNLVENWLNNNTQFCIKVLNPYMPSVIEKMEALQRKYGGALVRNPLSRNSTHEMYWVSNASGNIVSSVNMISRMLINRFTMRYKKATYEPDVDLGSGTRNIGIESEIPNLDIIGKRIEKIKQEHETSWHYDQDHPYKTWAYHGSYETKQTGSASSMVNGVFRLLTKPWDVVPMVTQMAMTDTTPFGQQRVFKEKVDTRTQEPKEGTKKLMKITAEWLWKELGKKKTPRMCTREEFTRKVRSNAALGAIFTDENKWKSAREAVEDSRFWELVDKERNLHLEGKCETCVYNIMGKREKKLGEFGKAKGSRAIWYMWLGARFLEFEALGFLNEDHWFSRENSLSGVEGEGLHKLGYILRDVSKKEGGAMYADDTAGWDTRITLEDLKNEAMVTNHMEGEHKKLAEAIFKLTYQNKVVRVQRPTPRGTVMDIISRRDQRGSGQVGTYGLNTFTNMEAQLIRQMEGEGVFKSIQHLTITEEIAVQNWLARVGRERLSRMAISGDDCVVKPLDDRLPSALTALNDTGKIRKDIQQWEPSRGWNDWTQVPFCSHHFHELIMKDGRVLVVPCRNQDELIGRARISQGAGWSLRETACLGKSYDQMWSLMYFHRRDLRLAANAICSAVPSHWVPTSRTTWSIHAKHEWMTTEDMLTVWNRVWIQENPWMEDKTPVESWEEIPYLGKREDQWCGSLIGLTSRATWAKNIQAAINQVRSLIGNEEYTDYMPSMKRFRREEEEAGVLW

O=c1c2ccccc2nc(-c2ccccc2)n1CCCN1CCOCC1
EC50 [1]: > 79.4 µM (not active) | EC50 [2]: > 79.4 µM (not active) | EC50 [3]: > 79.4 µM (not active)

CN(C)/C=C/C(=O)c1ccc2noc(-c3ccccc3)c2c1
AC50 [4]: 2.51 µM (active)

NC(=O)c1ccsc1NC(=O)CSc1nnc(C2CC2)n1Cc1ccccc1
IC50 (Prothrombin): > 50 µM (not active)

COc1cccc(CNc2ncnc3cc(Cl)ccc23)c1
AC50 [5]: 5.85 µM (active) | AC50 [6]: 3.73 µM (active) | AC50 [7]: > 70 µM (inactive)

CC(C)c1ccc(Nc2ccc(C(=O)O)cc2[N+](=O)[O-])cc1
IC50 (Genome polyprotein): 70.7 µM (active)

Oc1c(C(Nc2ccccn2)c2cccnc2)cc(Cl)c2cccnc12 (stereo unspecified)
EC50 [8]: 4.69 µM (active) | AC50 (INS1): 2.65 µM (active) | EC50 (Streptokinase A): > 150 µM (not active) | EC50 (Streptococcus): 9.26 µM (active) | AC50 [4]: 4.19 µM (active) | EC50 [9]: 1.64 µM (active)

O=C(CSc1nc2nncc-2c(O)[nH]1)N1CCCCC1
IC50 (Prothrombin): > 50 µM (not active)
